In ChEMBL document CHEMBL4334513, “Discovery of a Potent, Selective, and Orally Available MTHFD2 Inhibitor (DS18561882) with in Vivo Antitumor Activity” (J Med Chem, 2019):
Values after ≈ are worked out from the molar mass of the structure shown. One block for each compound: values may come before it.

Assays:
[1] = biological target: T1, Bifunctional methylenetetrahydrofolate dehydrogenase/cyclohydrolase, mitochondrial (Homo sapiens, UniProt P13995); test: Inhibition of recombinant MTHFD2 (unknown origin) using THF as substrate incubated for 30 mins in presence of NAD
T1 sequence (P13995 whole entry): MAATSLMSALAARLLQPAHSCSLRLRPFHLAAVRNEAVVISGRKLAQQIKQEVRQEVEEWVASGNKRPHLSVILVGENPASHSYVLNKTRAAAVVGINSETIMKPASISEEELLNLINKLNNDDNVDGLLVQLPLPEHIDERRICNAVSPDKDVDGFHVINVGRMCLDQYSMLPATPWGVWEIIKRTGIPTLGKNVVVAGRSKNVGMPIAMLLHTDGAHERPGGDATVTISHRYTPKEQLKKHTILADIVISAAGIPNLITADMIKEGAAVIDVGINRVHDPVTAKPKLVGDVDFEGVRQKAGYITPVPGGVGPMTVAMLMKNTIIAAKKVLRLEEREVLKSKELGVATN

[2] = biological target: T2, C-1-tetrahydrofolate synthase, cytoplasmic (Homo sapiens, UniProt P11586)
T2 sequence (P11586 whole entry): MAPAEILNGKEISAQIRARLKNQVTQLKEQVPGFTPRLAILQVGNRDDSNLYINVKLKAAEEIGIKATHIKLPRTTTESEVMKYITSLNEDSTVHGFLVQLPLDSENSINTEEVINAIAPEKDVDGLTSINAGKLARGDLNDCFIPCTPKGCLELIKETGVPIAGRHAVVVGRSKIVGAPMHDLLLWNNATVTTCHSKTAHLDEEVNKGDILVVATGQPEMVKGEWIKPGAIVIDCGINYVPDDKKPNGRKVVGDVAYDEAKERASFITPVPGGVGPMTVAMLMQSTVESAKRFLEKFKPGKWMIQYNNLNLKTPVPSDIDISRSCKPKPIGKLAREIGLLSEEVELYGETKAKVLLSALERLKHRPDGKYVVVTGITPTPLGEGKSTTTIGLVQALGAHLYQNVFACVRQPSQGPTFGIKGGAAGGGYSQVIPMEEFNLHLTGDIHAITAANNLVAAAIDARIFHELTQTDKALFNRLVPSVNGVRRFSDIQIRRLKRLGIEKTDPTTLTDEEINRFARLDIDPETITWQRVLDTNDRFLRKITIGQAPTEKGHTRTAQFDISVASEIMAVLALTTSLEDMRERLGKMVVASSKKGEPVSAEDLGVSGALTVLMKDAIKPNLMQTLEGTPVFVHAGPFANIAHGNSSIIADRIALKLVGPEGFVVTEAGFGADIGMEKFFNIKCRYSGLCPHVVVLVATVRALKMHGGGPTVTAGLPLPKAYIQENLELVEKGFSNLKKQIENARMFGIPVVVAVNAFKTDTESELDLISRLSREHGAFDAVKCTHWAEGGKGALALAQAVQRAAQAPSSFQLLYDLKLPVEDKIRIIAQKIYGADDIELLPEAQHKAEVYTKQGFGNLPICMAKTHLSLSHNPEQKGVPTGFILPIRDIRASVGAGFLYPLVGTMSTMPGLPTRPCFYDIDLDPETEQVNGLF
Description: Inhibition of recombinant MTHFD1 (unknown origin) using THF as substrate incubated for 30 mins in presence of NAD

[3] = Dissociation constant, acidic pKa of compound; type: physicochemical
[4] = Effective permeability of compound at pH 7.4 by PAMPA; type: ADME; conditions: read-out: Peff
[5] = Lipophilicity, logP of compound; type: physicochemical; conditions: octanol/water
[6] = Antiproliferative activity against human MDA-MB-231-luc-D3H2LN cells assessed as inhibition of growth after 3 days by CellTiter Glo assay; type: functional; conditions: 72 h
[7] = Lipophilicity, logD of compound; type: physicochemical; conditions: octanol/water
[8] = AUC in BALBc mouse at 10 mg/kg, po measured for 24 hrs by LC-MS/MS analysis; type: ADME, organism-based; conditions: in vivo
[9] = AUC in BALBc mouse at 100 mg/kg, po measured for 24 hrs by LC-MS/MS analysis; type: ADME, organism-based; conditions: in vivo
[10] = AUC in BALBc mouse at 30 mg/kg, po measured for 24 hrs by LC-MS/MS analysis; type: ADME, organism-based; conditions: in vivo
[11] = AUC in BALBc mouse at 300 mg/kg, po measured for 24 hrs by LC-MS/MS analysis; type: ADME, organism-based; conditions: in vivo
[12] = Cmax in BALBc mouse at 10 mg/kg, po measured for 24 hrs by LC-MS/MS analysis; type: ADME, organism-based; design: dose 10 mg/kg, route oral; conditions: in vivo
[13] = Cmax in BALBc mouse at 30 mg/kg, po measured for 24 hrs by LC-MS/MS analysis; type: ADME, organism-based; design: dose 30 mg/kg, route oral; conditions: in vivo
[14] = Cmax in BALBc mouse at 100 mg/kg, po measured for 24 hrs by LC-MS/MS analysis; type: ADME, organism-based; design: dose 100 mg/kg, route oral; conditions: in vivo
[15] = Cmax in BALBc mouse at 300 mg/kg, po measured for 24 hrs by LC-MS/MS analysis; type: ADME, organism-based; design: dose 300 mg/kg, route oral; conditions: in vivo
[16] = Half life in BALBc mouse at 10 mg/kg, po measured for 24 hrs by LC-MS/MS analysis; type: ADME, organism-based; conditions: in vivo
[17] = Half life in BALBc mouse at 30 mg/kg, po measured for 24 hrs by LC-MS/MS analysis; type: ADME, organism-based; conditions: in vivo
[18] = Half life in BALBc mouse at 100 mg/kg, po measured for 24 hrs by LC-MS/MS analysis; type: ADME, organism-based; conditions: in vivo
[19] = Half life in BALBc mouse at 300 mg/kg, po measured for 24 hrs by LC-MS/MS analysis; type: ADME, organism-based; conditions: in vivo
[20] = Effective permeability of compound at pH 5 by PAMPA; type: ADME; conditions: read-out: Peff
[21] = Solubility of compound in pH 1.2; type: physicochemical; conditions: buffer
[22] = Solubility of compound in pH 6.8; type: physicochemical; conditions: buffer
[23] = Metabolic stability in mouse liver microsomes assessed as remaining parent compound at 1 uM after 0.5 hrs; type: ADME, Microsome; conditions: read-out: Stability
[24] = Fraction unbound in mouse plasma; type: ADME, cell-free
[25] = Free plasma concentration in BALBc mouse at 10 to 300 mg/kg, po measured after 24 hrs by LC-MS/MS analysis; type: ADME, organism-based; conditions: in vivo
[26] = Antitumor activity against human MDA-MB-231-Luc cells xenografted in BALB/cAJcl nu/nu mouse assessed as tumour growth inhibition at 300 mg/kg, po administered bid for 11 days and measured every 2 to 3 days relative to control; type: functional; conditions: read-out: TGI
[27] = Toxicity in BALB/cAJcl nu/nu mouse xenografted with human MDA-MB-231-Luc cells assessed as body weight loss at 30 to 300 mg/kg, po administered bid for 11 days and measured every 1 to 2 days; type: organism-based; conditions: in vivo
[28] = Toxicity in BALB/cAJcl nu/nu mouse xenografted with human MDA-MB-231-Luc cells assessed as body weight loss at 300 mg/kg, po administered bid for 11 days and measured every 1 to 2 days; type: organism-based; conditions: in vivo

Description for Homo sapiens: Antitumor activity against human MDA-MB-231-Luc cells xenografted in orally dosed BALB/cAJcl nu/nu mouse assessed as tumour growth inhibition administered bid for 11 days and measured every 2 to 3 days relative to control

IC50 [1]: 340 nM
IC50 [2]: > 30000 nM
SMILES: CN(C)CCOc1ccc2c3c(c(=O)oc2c1)CN(C(=O)c1ccc(C(=O)O)cc1)CC3

IC50 [1]: 18 nM
pKa [3]: 5.7
Papp [4]: < 0.1 ×10⁻⁶ cm/s
logP [5]: 1.6
IC50 [2]: 5200 nM
SMILES: Cc1c(N2CCN(C)CC2)ccc2c3c(c(=O)oc12)CN(C(=O)c1ccc2c(c1)CS(=O)(=O)N2)CC3.O=C(O)C(F)(F)F
GI50 [6]: 19000 nM

IC50 [1]: 49 nM
IC50 [2]: 5000 nM
SMILES: Cc1c(OCCN(C)C)ccc2c3c(c(=O)oc12)CN(C(=O)c1ccc(C(=O)O)cc1)CC3

IC50 [1]: 320 nM
IC50 [2]: > 30000 nM
SMILES: CN1CCN(c2ccc3c4c(c(=O)oc3c2)CN(C(=O)c2ccc(C(=O)O)cc2)CC4)CC1

IC50 [1]: 340 nM
IC50 [2]: 23000 nM
SMILES: CN(C)Cc1ccc(-c2ccc3c4c(c(=O)oc3c2)CN(C(=O)c2ccc(C(=O)O)cc2)CC4)cc1

pKa [3]: 6.8
Papp [4]: 31.1 ×10⁻⁶ cm/s
logP [5]: 1.8
logD [7]: 1.3
AUC at 24 h [8]: 25.3 µg·h/mL
AUC at 24 h [9]: 306 µg·h/mL
AUC at 24 h [10]: 79.2 µg·h/mL
AUC at 24 h [11]: 929 µg·h/mL
Cmax [12]: 3660 ng/mL
Cmax [13]: 12700 ng/mL
Cmax [14]: 37900 ng/mL
Cmax [15]: 82600 ng/mL
half-life [16]: 2.73 h
half-life [17]: 3.35 h
half-life [18]: 3.51 h
half-life [19]: 2.32 h
Papp [20]: 7.2 ×10⁻⁶ cm/s
solubility [21]: 240 µg/mL (≈ 440 µM)
solubility [22]: 120 µg/mL (≈ 220 µM)
remaining at 0.5 h, 1 µM [23]: 91%
fraction unbound [24]: 0.153
Cp(f) [25]: 0 ng/mL
SMILES: Cc1c(N2CCN(C)CC2)ccc2c3c(c(=O)oc12)CN(C(=O)c1ccc(NS(C)(=O)=O)c(Cl)c1)CC3
GI50 [6]: 940 nM
inhibition in vivo at 300 mg/kg [26]: 43%
Activity [28]: Non-Toxic

Second part, the compound before the results:

SMILES: Cc1c(OCCN(C)C)ccc2c3c(c(=O)oc12)CN(C(=O)c1ccc2c(c1)CS(=O)(=O)N2)CC3
IC50 [1]: 53 nM
IC50 [2]: 8400 nM

SMILES: Cc1c(N2CCN(C)[C@@H](C)C2)ccc2c3c(c(=O)oc12)CN(C(=O)c1ccc(NS(C)(=O)=O)c(OC(F)(F)F)c1)CC3
Papp [4]: > 50 ×10⁻⁶ cm/s
logP [5]: 2.1
GI50 [6]: 340 nM
logD [7]: 1.9
AUC at 24 h [8]: 64.4 µg·h/mL
AUC at 24 h [9]: 726 µg·h/mL
AUC at 24 h [10]: 264 µg·h/mL
AUC at 24 h [11]: 1630 µg·h/mL
Cmax [12]: 11400 ng/mL
Cmax [13]: 56500 ng/mL
Cmax [14]: 90100 ng/mL
Cmax [15]: 143000 ng/mL
half-life [16]: 2.21 h
half-life [17]: 2.16 h
half-life [18]: 2.32 h
half-life [19]: 4 h
Papp [20]: 17.2 ×10⁻⁶ cm/s
solubility [21]: 1100 µg/mL (≈ 1810 µM)
solubility [22]: 630 µg/mL (≈ 1040 µM)
remaining at 0.5 h, 1 µM [23]: 66%
fraction unbound [24]: 0.031
Cp(f) [25]: 0 ng/mL
inhibition in vivo at 300 mg/kg [26]: 67%
Activity [27]: Non-Toxic
TGI (Homo sapiens): Dose-dependent effect

SMILES: Cc1c(N2CCN(C)[C@H](C)C2)ccc2c3c(c(=O)oc12)CN(C(=O)c1ccc(NS(C)(=O)=O)c(Cl)c1)CC3
IC50 [1]: 130 nM
logP [5]: 2
GI50 [6]: 1700 nM

SMILES: Cc1c(N2CCN(C)[C@@H](C)C2)ccc2c3c(c(=O)oc12)CN(C(=O)c1ccc(NS(C)(=O)=O)c(Cl)c1)CC3
logP [5]: 2
GI50 [6]: 200 nM
logD [7]: 1.6

SMILES: Cc1c(N2C[C@@H](C)N(C)[C@@H](C)C2)ccc2c3c(c(=O)oc12)CN(C(=O)c1ccc(NS(C)(=O)=O)c(Cl)c1)CC3
logP [5]: 2.2
GI50 [6]: 760 nM
logD [7]: 1.7
